Earlier results in PMC12399788, “A Comparison of the Molecular Pharmacological Properties of Current Short, Long, and Ultra‐Long‐Acting β2‐Agonists Used for Asthma and COPD” (Pharmacology Research & Perspectives, 2025).

How the values were obtained:
guinea pig tracheal = test system: guinea pig tracheal; parameters: method as in PMID 20402514; settings: guinea pig tracheal studies
conscious guinea pigs = settings: equipotent nebulized agents
human lung (mast cells) = settings: histamine release from human lung (mast cells)

Row | SMILES | duration (guinea pig tracheal) | duration of action (human trachea) [min] | duration of action relative to salbutamol (human trachea) [times longer] | bronchodilation duration (conscious guinea pigs) | time by which response was lost (human lung (mast cells)) [h] | bronchodilation at 6 h (conscious guinea pigs; 6 h) | response remaining (% maximal) (human lung (mast cells); at 20 h) [%]
1 | COc1ccc(CC(C)NCC(O)c2ccc(O)c(NC=O)c2)cc1 (centres unmarked) [Formoterol, formoterol] | 1.2 h | 34 | 4.5 | 3 h | – | – | –
2 | CCc1cc2c(cc1CC)CC(NC[C@H](O)c1ccc(O)c3[nH]c(=O)ccc13)C2 [Indacaterol, indacaterol] | over 12 h | – | – | – | – | – | –
3 | CC(C)(C)NCC(O)c1ccc(O)c(CO)c1 (centres unmarked) [Salbutamol, salbutamol] | 0.9 h | 7.6 | – | less than 1.5 h | ≤ 4 | – | –
4 | OCc1cc(C(O)CNCCCCCCOCCCCc2ccccc2)ccc1O (centres unmarked) [Salmeterol, salmeterol] | – | – | – | – | – | no reduction | 75
